Source: ChEMBL document CHEMBL1201862, “PubChem BioAssay data set” (2004)
The source made the active and inactive calls.

Key:
[1] = target: NAD-dependent protein deacylase sirtuin-5, mitochondrial (Homo sapiens, UniProt Q9NXA8); test: SIRT5 desuccinylase inhibitors, dose response, biochemical, fluorescence imaging, cherry-pick, set 5 (AID 720591);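 also: desuccinylation of succinyl peptide AMC substrate read as fluorescence after trypsin release; potency of inhibitors that lower fluorescence and may act on trypsin instead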
Mu-type opioid receptor = Mu-type opioid receptor (Homo sapiens, UniProt P35372); type: functional, cell-based;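 also: U2OS cells with beta-arrestin recruitment to OPRM1 by beta-gal complementation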
[2] = target: 5-hydroxytryptamine receptor 2A (Mus musculus, UniProt P35363); type: functional, cell-based;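 also: CHO-K1 cells with tagged receptor and beta-arrestin; agonist potency measured as compound-induced activation of the receptor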
[3] = tested on: Streptococcus sp. 'group A'; test: growth inhibition of control SK(-) GAS strain, dose response, counter-screen for streptokinase expression inhibitor project, luminescence, kanamycin, BacTiterGlo, confirmation (AID 1900); type: functional, organism-based
[4] = off-target signal loss in HeLa-CEM21 co-culture – HeLa F-luc CTL cells, cherry-picked, counter-screen for HIV-1 Env fusion inhibitor project, dose response (AID 652040); type: functional, cell-based;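 also: potency for signal decrease marking cytotoxic or nonspecific inhibition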
[5] = CEM21 lymphoblast cell cytotoxicity, dose response, cytotoxicity control for viral fusion inhibitor project, CellTiter-Glo luminescence, cherry-picked (AID 652042); type: functional, cell-based;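 also: potency for signal decrease meaning cytotoxicity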
Streptokinase A = target: T1, Streptokinase A (Streptococcus pyogenes serotype M1, UniProt P10520); test: S. pyogenes streptokinase expression inhibitors, potency, dose response, plasminogen activation absorbance, OD405 (AID 1914); type: functional, Streptococcus pyogenes M1 GAS;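 also: secreted streptokinase activity via plasminogen activation per viability signal from cell pellet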
T1 sequence (P10520 whole entry): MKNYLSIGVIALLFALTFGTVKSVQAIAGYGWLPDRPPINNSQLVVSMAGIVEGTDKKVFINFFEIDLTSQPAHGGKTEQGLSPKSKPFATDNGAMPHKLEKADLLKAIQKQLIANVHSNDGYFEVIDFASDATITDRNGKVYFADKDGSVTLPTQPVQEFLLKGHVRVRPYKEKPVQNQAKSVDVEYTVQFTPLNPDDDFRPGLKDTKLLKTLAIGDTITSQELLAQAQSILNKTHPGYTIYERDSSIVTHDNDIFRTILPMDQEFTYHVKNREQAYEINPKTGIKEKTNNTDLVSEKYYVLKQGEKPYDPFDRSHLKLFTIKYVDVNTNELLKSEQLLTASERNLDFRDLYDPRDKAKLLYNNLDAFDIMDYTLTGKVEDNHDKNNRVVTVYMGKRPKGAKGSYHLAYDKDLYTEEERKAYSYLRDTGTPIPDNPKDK

[6] = inhibitors of HIV Env-driven cell fusion, dose response, cherry-pick (AID 652057); type: functional, cell-based
Streptococcus = test: Group A Streptococcus viability loss, dose response, counter-screen for streptokinase expression inhibitor project, luminescence, BacTiterGlo (AID 1915); type: functional, organism-based;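 also: potency for reduction of bacterial viability or growth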
[7] = target: T2, Long-chain-fatty-acid--AMP ligase FadD28 (Mycobacterium tuberculosis, UniProt P9WQ59); test: Fluorescence polarization aasay to screen for inhibitors that compete for the binding of FadD28 to a bisubstrate Measured in Biochemical System Using Plate Reader - 2147-01_Inhibitor_Dose_CherryPick_Activity.; type: functional, Mycobacterium tuberculosis H37Rv
T2 sequence (P9WQ59 whole entry): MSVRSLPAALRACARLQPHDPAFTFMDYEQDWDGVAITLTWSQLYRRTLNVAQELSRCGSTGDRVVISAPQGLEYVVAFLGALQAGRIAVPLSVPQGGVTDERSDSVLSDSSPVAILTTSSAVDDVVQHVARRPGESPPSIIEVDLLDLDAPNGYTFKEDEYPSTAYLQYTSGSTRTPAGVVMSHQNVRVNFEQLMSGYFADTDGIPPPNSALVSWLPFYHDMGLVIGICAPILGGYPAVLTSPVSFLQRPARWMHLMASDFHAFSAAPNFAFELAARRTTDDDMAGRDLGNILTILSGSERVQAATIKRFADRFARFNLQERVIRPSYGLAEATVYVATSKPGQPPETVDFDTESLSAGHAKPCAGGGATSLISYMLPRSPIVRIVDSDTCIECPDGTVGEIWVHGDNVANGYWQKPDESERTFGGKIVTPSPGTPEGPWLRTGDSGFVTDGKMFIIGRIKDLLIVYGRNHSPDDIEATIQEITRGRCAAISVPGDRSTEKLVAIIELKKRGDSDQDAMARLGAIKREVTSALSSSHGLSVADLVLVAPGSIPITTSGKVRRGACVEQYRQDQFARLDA

[8] = ZM109 Env clade C HIV-1 fusion inhibitors, dose response, HeLa effector, CEM target cells, luciferase, cherry-pick (AID 652058); type: functional, cell-based
[9] = microbe, parasite or virus in culture; type: functional; conditions: Mycobacterium tuberculosis
[10] = inhibitors of clade B AD8 Env fusion, dose response, cell-based, cherry-pick (AID 652062); type: functional;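 also: luciferase signal from cell-cell fusion driven by HIV-1 clade B AD8 Env; potency is for inhibitors of fusion seen as a drop in luminescence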
Protein skinhead-1 = target: T3, Protein skinhead-1 (Caenorhabditis elegans, UniProt P34707); type: functional
T3 sequence (P34707 whole entry): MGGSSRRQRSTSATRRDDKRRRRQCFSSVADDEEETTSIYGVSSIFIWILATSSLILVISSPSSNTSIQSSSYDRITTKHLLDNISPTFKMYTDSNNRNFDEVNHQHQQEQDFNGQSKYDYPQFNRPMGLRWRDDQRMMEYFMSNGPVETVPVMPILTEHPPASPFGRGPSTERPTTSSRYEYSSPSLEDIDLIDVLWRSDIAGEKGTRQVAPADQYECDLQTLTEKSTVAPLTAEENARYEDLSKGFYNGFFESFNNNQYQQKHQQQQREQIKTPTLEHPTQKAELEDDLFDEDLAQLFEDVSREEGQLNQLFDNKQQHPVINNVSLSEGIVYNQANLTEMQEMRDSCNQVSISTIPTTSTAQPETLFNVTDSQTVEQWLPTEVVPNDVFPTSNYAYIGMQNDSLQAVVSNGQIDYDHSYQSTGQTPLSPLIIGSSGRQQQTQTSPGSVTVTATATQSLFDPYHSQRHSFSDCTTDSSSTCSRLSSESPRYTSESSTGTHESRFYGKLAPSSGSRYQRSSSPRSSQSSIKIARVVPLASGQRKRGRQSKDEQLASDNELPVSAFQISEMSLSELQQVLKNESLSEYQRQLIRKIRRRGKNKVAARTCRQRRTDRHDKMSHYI

[11] = target: T4, Heat shock factor protein 1 (Mus musculus, UniProt P38532); test: inhibition of MG132-induced HSE-luciferase signal, confirmation, cell-based, NIH3T3, luminescence, dose retest (AID 2382); type: functional;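 also: NIH3T3 fibroblasts with HSF1-driven luciferase reporter stressed by proteasome inhibitor MG132; luminescence from HSF1-driven luciferase expression after 8 hours of MG132 stress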
T4 sequence (P38532 whole entry): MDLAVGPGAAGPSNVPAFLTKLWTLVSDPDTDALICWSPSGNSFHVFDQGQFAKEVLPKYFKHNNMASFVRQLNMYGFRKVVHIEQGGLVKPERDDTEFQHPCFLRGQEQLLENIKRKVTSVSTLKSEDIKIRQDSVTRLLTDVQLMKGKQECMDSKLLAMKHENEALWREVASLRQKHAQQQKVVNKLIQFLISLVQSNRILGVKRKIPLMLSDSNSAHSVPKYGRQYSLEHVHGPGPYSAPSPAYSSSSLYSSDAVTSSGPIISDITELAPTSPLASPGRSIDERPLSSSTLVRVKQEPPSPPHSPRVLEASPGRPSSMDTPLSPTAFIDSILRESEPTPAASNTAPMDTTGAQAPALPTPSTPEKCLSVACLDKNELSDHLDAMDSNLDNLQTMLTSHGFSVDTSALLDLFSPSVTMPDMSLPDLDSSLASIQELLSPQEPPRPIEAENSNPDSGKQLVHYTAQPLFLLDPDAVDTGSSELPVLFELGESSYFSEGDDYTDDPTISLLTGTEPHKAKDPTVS

[12] = target: T5, High affinity choline transporter 1 (Homo sapiens, UniProt Q9GZV3); test: CHT inhibitors, dose response, cell-based, 5-point CRC, membrane potential dye (AID 504840); type: functional
T5 sequence (Q9GZV3 whole entry): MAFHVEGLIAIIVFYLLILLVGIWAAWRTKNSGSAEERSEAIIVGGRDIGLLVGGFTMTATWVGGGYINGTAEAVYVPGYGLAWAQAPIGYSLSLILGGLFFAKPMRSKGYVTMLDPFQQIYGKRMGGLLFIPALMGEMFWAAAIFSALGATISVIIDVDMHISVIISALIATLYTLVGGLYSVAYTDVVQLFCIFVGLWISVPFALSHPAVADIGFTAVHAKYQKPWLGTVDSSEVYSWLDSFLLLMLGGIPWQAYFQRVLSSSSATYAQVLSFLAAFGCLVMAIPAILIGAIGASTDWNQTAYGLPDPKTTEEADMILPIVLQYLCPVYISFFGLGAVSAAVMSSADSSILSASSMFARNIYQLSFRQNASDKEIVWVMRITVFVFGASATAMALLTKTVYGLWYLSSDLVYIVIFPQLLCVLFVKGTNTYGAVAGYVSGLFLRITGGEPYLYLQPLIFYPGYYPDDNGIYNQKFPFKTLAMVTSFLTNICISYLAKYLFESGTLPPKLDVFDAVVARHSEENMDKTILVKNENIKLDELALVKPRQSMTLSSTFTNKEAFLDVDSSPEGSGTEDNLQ

Paired box protein Pax-8 = Paired box protein Pax-8 (Homo sapiens, UniProt Q06710); test: inhibitors of PAX8-driven TPO luciferase reporter, dose response, RMG-I cells, cherry-pick (AID 687027); type: functional, cell-based;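 also: luciferase reporter driven by Pax8 target thyroperoxidase promoter measured by SteadyGlo luminescence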
P388/ADR = test: cells; type: functional; conditions: Mus musculus
SN12K1 = test: cells; type: functional; conditions: Homo sapiens
[13] = HepG2 cell cytotoxicity, dose response, cytotoxicity control for Shn3 inhibitor project, CellTiter-Glo, cherry-picked (AID 624134); type: functional, cell-based
[14] = control 3'UTR Renilla luciferase suppression, dose response, counter-screen for Shn3 inhibitor project, cell-based, Clone20-Shn3RL, cherry-picked (AID 624133); type: functional
[15] = Shn3 3'UTR reporter inhibitors, dose response, cell-based, Clone20 osteoblasts, firefly luciferase, cherry-picked (AID 624132); type: functional;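 also: firefly luciferase luminescence from reporter carrying the Shn3 3'UTR in osteoblasts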
P388 = test: cells; type: functional; conditions: Mus musculus
[16] = P. falciparum Dd2 growth inhibitors, dose response, SYBR Green, cherry-picked samples (AID 1159567); type: functional, cell-based

Sequence of Mu-type opioid receptor (P35372 whole entry): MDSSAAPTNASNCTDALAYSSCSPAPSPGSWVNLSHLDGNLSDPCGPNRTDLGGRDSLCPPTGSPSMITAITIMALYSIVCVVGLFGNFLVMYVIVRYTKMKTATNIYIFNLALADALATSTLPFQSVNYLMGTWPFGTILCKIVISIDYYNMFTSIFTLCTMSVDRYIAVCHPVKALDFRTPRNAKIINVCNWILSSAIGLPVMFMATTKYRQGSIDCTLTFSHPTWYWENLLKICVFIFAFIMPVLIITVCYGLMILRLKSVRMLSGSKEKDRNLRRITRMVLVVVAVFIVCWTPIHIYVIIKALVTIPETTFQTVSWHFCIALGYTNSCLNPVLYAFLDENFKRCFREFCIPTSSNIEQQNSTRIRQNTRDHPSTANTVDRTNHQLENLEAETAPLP
Sequence of 5-hydroxytryptamine receptor 2A (P35363 whole entry): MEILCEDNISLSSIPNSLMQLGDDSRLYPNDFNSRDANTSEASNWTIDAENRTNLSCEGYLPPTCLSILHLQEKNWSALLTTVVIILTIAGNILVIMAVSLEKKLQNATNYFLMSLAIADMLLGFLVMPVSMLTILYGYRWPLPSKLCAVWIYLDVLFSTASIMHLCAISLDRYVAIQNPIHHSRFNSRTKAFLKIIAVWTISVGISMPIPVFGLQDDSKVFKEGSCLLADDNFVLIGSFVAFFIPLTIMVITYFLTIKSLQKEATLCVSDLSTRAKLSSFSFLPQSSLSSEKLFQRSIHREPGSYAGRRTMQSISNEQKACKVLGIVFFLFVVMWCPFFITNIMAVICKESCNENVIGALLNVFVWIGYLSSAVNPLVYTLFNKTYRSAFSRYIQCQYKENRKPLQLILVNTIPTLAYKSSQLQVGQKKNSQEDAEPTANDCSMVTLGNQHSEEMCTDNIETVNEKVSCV
Sequence of NAD-dependent protein deacylase sirtuin-5, mitochondrial (Q9NXA8 whole entry): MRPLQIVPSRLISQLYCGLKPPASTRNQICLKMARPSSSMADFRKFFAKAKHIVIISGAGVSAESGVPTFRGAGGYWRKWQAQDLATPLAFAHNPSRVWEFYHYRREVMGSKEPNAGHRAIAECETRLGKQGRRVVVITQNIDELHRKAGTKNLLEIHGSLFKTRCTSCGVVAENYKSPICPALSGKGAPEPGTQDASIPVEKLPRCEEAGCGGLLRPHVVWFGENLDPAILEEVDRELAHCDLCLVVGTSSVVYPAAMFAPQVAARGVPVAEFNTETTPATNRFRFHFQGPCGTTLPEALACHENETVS
Sequence of Paired box protein Pax-8 (Q06710 whole entry): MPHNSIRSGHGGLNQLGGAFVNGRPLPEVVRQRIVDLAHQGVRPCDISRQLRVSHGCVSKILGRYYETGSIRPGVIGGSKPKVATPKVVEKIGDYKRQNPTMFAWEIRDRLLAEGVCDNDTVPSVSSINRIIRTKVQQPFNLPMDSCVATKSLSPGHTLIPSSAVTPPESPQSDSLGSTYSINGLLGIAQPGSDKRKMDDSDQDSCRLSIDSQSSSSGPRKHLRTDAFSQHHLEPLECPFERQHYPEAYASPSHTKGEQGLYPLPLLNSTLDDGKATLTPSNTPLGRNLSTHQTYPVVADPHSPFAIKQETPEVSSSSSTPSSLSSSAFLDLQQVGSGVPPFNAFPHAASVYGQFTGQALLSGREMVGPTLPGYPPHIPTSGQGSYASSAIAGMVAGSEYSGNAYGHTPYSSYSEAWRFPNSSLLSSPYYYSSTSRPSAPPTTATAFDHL

Structure (SMILES): COc1cccc(NC(=O)CN(C)CC(=O)Nc2ccc3c(c2)CCC3)c1
- AC50 [1]: > 30 µM (inactive)

Structure (SMILES): O=C(CN1CCN(c2ccccn2)CC1)Nc1cccc(S(=O)(=O)N2CCCC2)c1
- EC50 (Mu-type opioid receptor): 92.5 µM (inactive)
- EC50 [2]: 9.85 µM (active)

Structure (SMILES): OC(COCc1ccc(Cl)cc1)CN1CCN(c2ccccn2)CC1 (stereo not drawn)
- EC50 (Mu-type opioid receptor): 92.5 µM (inactive)
- EC50 [2]: 0.819 µM (active)

Structure (SMILES): Cc1ccc(C2Oc3ccccc3C3=C2C(c2cccs2)n2ncnc2N3)cc1 (stereo not drawn)
- EC50 [3]: 2.7 µM (active)
- AC50 [4]: 14.1 µM (active)
- AC50 [5]: 31.7 µM (active)
- EC50 (Streptokinase A): > 150 µM (not active)
- AC50 [6]: 9.29 µM (active)
- EC50 (Streptococcus): 7.1 µM (active)

Structure (SMILES): Brc1cccc(CN2CCN(c3ncccn3)CC2)c1
- EC50 (Mu-type opioid receptor): 92.5 µM (inactive)
- EC50 [2]: 0.352 µM (active)

Structure (SMILES): O=C(c1ccco1)N1CCN(Cc2ccc(Cl)cc2)CC1
- EC50 (Mu-type opioid receptor): 92.5 µM (inactive)
- EC50 [2]: 4.08 µM (active)

Structure (SMILES): COc1ccc(NC(=O)N[C@@H](CCSC)C(=O)O)cc1OC
- AC50 [1]: > 30 µM (inactive)

Structure (SMILES): Cc1ccc(C2CC(=O)N3CN(Cc4ccco4)CSC3=C2C#N)cc1 (stereo not drawn)
- AC50 [7]: 82.5 µM (active)

Structure (SMILES): Cc1[nH]c2ccc(OC(F)(F)F)cc2c1CCNCc1ccc(Cl)cc1
- AC50 [4]: 1.71 µM (active)
- AC50 [5]: 9.56 µM (active)
- AC50 [8]: 1.24 µM (active)
- AC50 [6]: 0.838 µM (active)
- CC50 [9]: 12.6 µM (active)
- AC50 [10]: 5.12 µM (active)

Structure (SMILES): O=C(Cn1c(=O)oc2ccccc21)Nc1cccc(Cl)c1
- AC50 [1]: > 30 µM (inactive)

Structure (SMILES): O=C(Nc1ccc(CN2CCOCC2)cc1)c1cc2ccccc2o1
- IC50 (Protein skinhead-1): 15.4 µM (active)

Structure (SMILES): CC(C)OC(=O)CSc1nnc(SCc2cccc3ccccc23)s1
- IC50 (Protein skinhead-1): > 100 µM (inactive)

Structure (SMILES): Cc1cccc(NC(=O)CN2C(=O)N/C(=C/c3cc(C)n(C(C)C)c3C)C2=O)c1
- EC50 [11]: > 195 µM (not active)
- AC50 [7]: 7.01 µM (active)

Structure (SMILES): CCn1cc(CN2CCC(C(=O)Nc3ccc(Oc4cccnc4)cc3)CC2)cn1
- EC50 [3]: > 150 µM (not active)
- EC50 (Streptokinase A): > 150 µM (not active)
- AC50 [7]: 37.3 µM (active)
- EC50 (Streptococcus): > 150 µM (not active)

Structure (SMILES): Cc1nn(-c2ccccc2)c2nc(O)cc(C(F)(F)F)c12
- IC50 [12]: 7.1 µM (active)
- AC50 [1]: > 30 µM (inactive)

Structure (SMILES): CN(CC(=O)Nc1cccc(Cl)c1)S(=O)(=O)c1ccc2c(c1)n(C)c(=O)c(=O)n2C
- AC50 [1]: > 30 µM (inactive)

Structure (SMILES): O=C1NC2C(=CC(O)C(O)C2O)c2cc3c(cc21)OCO3 (stereo not drawn)
- AC50 [4]: 3.78 µM (active)
- AC50 (Paired box protein Pax-8): 0.325 µM (active)
- AC50 [5]: 0.738 µM (active)
- GI50 (P388/ADR): 0.0984 µM (active)
- GI50 (SN12K1): 0.234 µM (active)
- AC50 [13]: 53.9 µM (active)
- AC50 [6]: 2.38 µM (active)
- AC50 [14]: 3.82 µM (active)
- AC50 [15]: 2.22 µM (active)
- IC50 (Protein skinhead-1): 64.3 µM (inactive)
- GI50 (P388): 0.115 µM (active)

Structure (SMILES): Fc1ccc2cc(-c3ccccc3)ncc2c1
- IC50 (Protein skinhead-1): > 100 µM (inactive)

Structure (SMILES): COc1cccc(C(=O)NNC(=O)CCN2CCN(c3ccccc3)CC2)c1
- EC50 (Mu-type opioid receptor): 92.4 µM (inactive)
- EC50 [2]: 0.427 µM (active)

Structure (SMILES): C[C@@H]1CN([C@H](C)CO)S(=O)(=O)c2ccc(C#Cc3ccccc3)cc2O[C@H]1CN(C)C(=O)C1CC1
- AC50 [16]: 7.33 µM (active)
- AC50 [5]: 44.3 µM (active)
- AC50 [6]: 2.66 µM (active)
- AC50 [10]: 11.1 µM (active)
